Results published in patent US10760110B2, “Antibiotic testing and screening system” (priority 2017, dated 2020).
Like-named read-outs stand apart in the source and are kept apart here.

How the values were obtained:
[1] = system: K. pneumoniae NVT1001 and its ΔompK35/36 and/or ΔramR mutants; assay: Etest MIC, OmpK35/36 loss and AcrAB-TolC overexpression (ΔramR) strains (Table 6); type: cell-based, Klebsiella pneumoniae; conditions: Klebsiella pneumoniae
Procedure, shortened: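 Etest MICs against K. pneumoniae NVT1001 and its ΔompK35/36 and/or ΔramR mutants, rounded up to the next two-fold value. For NVT1001 carrying pACYC177-blaOXA-48, ceftazidime and cefotaxime MICs by CLSI broth microdilution, interpreted with CLSI 2017 breakpoints.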

[2] = system: K. pneumoniae NVT1001 strains with carbapenemase plasmids; assay: Etest MIC of β-lactams, OmpK35/36 loss, ΔramR and/or carbapenemase (Table 9); type: cell-based, Klebsiella pneumoniae; conditions: for MIC: Klebsiella pneumoniae
Procedure, shortened: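 Cloned resistance genes in pACYC177 or pACYC184 were electroporated into K. pneumoniae NVT1001. MICs were determined by Etest and rounded up to the next two-fold value. Ceftazidime and cefotaxime against the blaOXA-48 construct were also tested by CLSI broth microdilution, with breakpoints from CLSI 2017 (cephalothin CLSI 2015, moxifloxacin EUCAST 2017).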

[3] = system: K. pneumoniae NVT1001 ΔramRΔompK35/36 mutant and its revertants; assay: Etest MIC, ΔramRΔompK35/36 mutant and its revertants (Table 7); type: cell-based; conditions: Klebsiella pneumoniae
[4] = ΔramRΔ35/36, ΔramRΔompK35/36 mutant
[5] = IMP-8 on pACYC177, WT (NVT1001), read-out: MIC
[6] = IMP-8 on pACYC177, Δ35 (ΔompK35 mutant)
[7] = IMP-8 on pACYC177, Δ35/36 (ΔompK35/36 mutant)
[8] = IMP-8 on pACYC177, Δ36 (ΔompK36 mutant)
[9] = IMP-8 on pACYC177, ΔramR mutant
[10] = IMP-8 on pACYC177, ΔramRΔ35 (ΔramRΔompK35 mutant)
[11] = IMP-8 on pACYC177, ΔramRΔ35/36 (ΔramRΔompK35/36 mutant)
[12] = IMP-8 on pACYC177, ΔramRΔ36 (ΔramRΔompK36 mutant)
[13] = KPC-2 on pACYC177, WT (NVT1001), read-out: MIC
[14] = KPC-2 on pACYC177, Δ35 (ΔompK35 mutant)
[15] = KPC-2 on pACYC177, Δ35/36 (ΔompK35/36 mutant)
[16] = KPC-2 on pACYC177, Δ36 (ΔompK36 mutant)
[17] = KPC-2 on pACYC177, ΔramR mutant
[18] = KPC-2 on pACYC177, ΔramRΔ35 (ΔramRΔompK35 mutant)
[19] = KPC-2 on pACYC177, ΔramRΔ35/36 (ΔramRΔompK35/36 mutant)
[20] = KPC-2 on pACYC177, ΔramRΔ36 (ΔramRΔompK36 mutant)
[21] = KPC-3 on pACYC177, WT (NVT1001), read-out: MIC
[22] = KPC-3 on pACYC177, Δ35 (ΔompK35 mutant)
[23] = KPC-3 on pACYC177, Δ35/36 (ΔompK35/36 mutant)
[24] = KPC-3 on pACYC177, Δ36 (ΔompK36 mutant)
[25] = KPC-3 on pACYC177, ΔramR mutant
[26] = KPC-3 on pACYC177, ΔramRΔ35 (ΔramRΔompK35 mutant)
[27] = KPC-3 on pACYC177, ΔramRΔ35/36 (ΔramRΔompK35/36 mutant)
[28] = KPC-3 on pACYC177, ΔramRΔ36 (ΔramRΔompK36 mutant)
[29] = NDM-1 on pACYC177, WT (NVT1001), read-out: MIC
[30] = NDM-1 on pACYC177, Δ35 (ΔompK35 mutant)
[31] = NDM-1 on pACYC177, Δ35/36 (ΔompK35/36 mutant)
[32] = NDM-1 on pACYC177, Δ36 (ΔompK36 mutant)
[33] = NDM-1 on pACYC177, ΔramR mutant
[34] = NDM-1 on pACYC177, ΔramRΔ35 (ΔramRΔompK35 mutant)
[35] = NDM-1 on pACYC177, ΔramRΔ35/36 (ΔramRΔompK35/36 mutant)
[36] = NDM-1 on pACYC177, ΔramRΔ36 (ΔramRΔompK36 mutant)
[37] = OXA-48 on pACYC177, WT (NVT1001), read-out: MIC
[38] = OXA-48 on pACYC177, Δ35 (ΔompK35 mutant)
[39] = OXA-48 on pACYC177, Δ35/36 (ΔompK35/36 mutant)
[40] = OXA-48 on pACYC177, Δ36 (ΔompK36 mutant)
[41] = OXA-48 on pACYC177, ΔramR mutant
[42] = OXA-48 on pACYC177, ΔramRΔ35 (ΔramRΔompK35 mutant)
[43] = OXA-48 on pACYC177, ΔramRΔ35/36 (ΔramRΔompK35/36 mutant)
[44] = OXA-48 on pACYC177, ΔramRΔ36 (ΔramRΔompK36 mutant)
[45] = VIM-1 on pACYC177, WT (NVT1001), read-out: MIC
[46] = VIM-1 on pACYC177, Δ35 (ΔompK35 mutant)
[47] = VIM-1 on pACYC177, Δ35/36 (ΔompK35/36 mutant)
[48] = VIM-1 on pACYC177, Δ36 (ΔompK36 mutant)
[49] = VIM-1 on pACYC177, ΔramR mutant
[50] = VIM-1 on pACYC177, ΔramRΔ35 (ΔramRΔompK35 mutant)
[51] = VIM-1 on pACYC177, ΔramRΔ35/36 (ΔramRΔompK35/36 mutant)
[52] = VIM-1 on pACYC177, ΔramRΔ36 (ΔramRΔompK36 mutant)
[53] = no supplemental plasmid, WT (NVT1001), read-out: MIC
[54] = no supplemental plasmid, Δ35 (ΔompK35 mutant)
[55] = no supplemental plasmid, Δ35/36 (ΔompK35/36 mutant)
[56] = no supplemental plasmid, Δ36 (ΔompK36 mutant)
[57] = no supplemental plasmid, ΔramR mutant
[58] = no supplemental plasmid, ΔramRΔ35 (ΔramRΔompK35 mutant)
[59] = no supplemental plasmid, ΔramRΔ35/36 (ΔramRΔompK35/36 mutant)
[60] = no supplemental plasmid, ΔramRΔ36 (ΔramRΔompK36 mutant)
[61] = ΔramRΔompK35/36::ompK35/36 revertant
[62] = ΔramRΔompK35/36::ompK35 revertant
[63] = ΔramRΔompK35/36::ompK36 revertant
[64] = ΔramRΔompK35/36::ramR revertant
[65] = ΔramRΔompK35/36::ramR::ompK35/36 revertant
[66] = ΔramRΔompK35/36::ramR::ompK35 revertant
[67] = ΔramRΔompK35/36::ramR::ompK36 revertant

CO[C@@]1(NC(=O)Cc2cccs2)C(=O)N2C(C(=O)O)=C(COC(N)=O)CS[C@@H]21 [Cefoxitin]
32 µg/mL: MIC [2, 14] | MIC [2, 22]
128 µg/mL: MIC ([1]; Δ35/36, ΔompK35/36 mutant) | MIC [2, 17] | MIC [2, 18] | MIC [2, 25] | MIC [2, 26] | MIC [2, 39] | MIC [2, 41] | MIC [2, 55]
> 256 µg/mL: MIC [1, 4] | MIC ([1]; ΔramRΔ36, ΔramRΔompK36 mutant) | MIC [2, 5] | MIC [2, 6] | MIC [2, 7] | MIC [2, 8] | MIC [2, 9] | MIC [2, 10] | MIC [2, 11] | MIC [2, 12] | MIC [2, 15] | MIC [2, 19] | MIC [2, 20] | MIC [2, 23] | MIC [2, 27] | MIC [2, 28] | MIC [2, 29] | MIC [2, 30] | MIC [2, 31] | MIC [2, 32] | MIC [2, 33] | MIC [2, 34] | MIC [2, 35] | MIC [2, 36] | MIC [2, 43] | MIC [2, 44] | MIC [2, 45] | MIC [2, 46] | MIC [2, 47] | MIC [2, 48] | MIC [2, 49] | MIC [2, 50] | MIC [2, 51] | MIC [2, 52] | MIC [2, 59] | MIC [2, 60] | MIC [3, 62] | MIC ([3]; ΔramRΔompK35/36 mutant)
intermediate resistance: resistance category ([2]; production of KPC-2 or KPC-3 alone)
4 µg/mL: MIC ([1]; WT, NVT1001, read-out: MIC) | MIC ([1]; Δ35, ΔompK35 mutant) | MIC [2, 37] | MIC [2, 53] | MIC [2, 54] | MIC [3, 65]
8 µg/mL: MIC [2, 38] | MIC [3, 67]
64 µg/mL: MIC ([1]; ΔramR mutant) | MIC ([1]; ΔramRΔ35, ΔramRΔompK35 mutant) | MIC [2, 16] | MIC [2, 24] | MIC [2, 42] | MIC [2, 57] | MIC [2, 58] | MIC [3, 61] | MIC [3, 63] | MIC [3, 64]
16 µg/mL: MIC ([1]; Δ36, ΔompK36 mutant) | MIC [2, 13] | MIC [2, 21] | MIC [2, 40] | MIC [2, 56] | MIC [3, 66]

CO/N=C(\C(=O)N[C@@H]1C(=O)N2C(C(=O)O)=C(COC(C)=O)CS[C@H]12)c1csc(N)n1 [Cefotaxime]
0.25 µg/mL: MIC ([1]; Δ36, ΔompK36 mutant) | MIC [2, 56] | MIC [3, 66]
64 µg/mL: MIC [2, 5]
16 µg/mL: MIC [2, 40]
256 µg/mL: MIC [2, 8] | MIC [2, 11] | MIC [2, 12] | MIC [2, 14] | MIC [2, 16] | MIC [2, 17] | MIC [2, 18] | MIC [2, 22] | MIC [2, 24] | MIC [2, 25] | MIC [2, 26] | MIC [2, 29] | MIC [2, 30]
2 µg/mL: MIC ([1]; Δ35/36, ΔompK35/36 mutant) | MIC [2, 37] | MIC [2, 55] | MIC [3, 64]
0.06 µg/mL: MIC ([1]; WT, NVT1001, read-out: MIC) | MIC [2, 53] | MIC [3, 65]
0.125 µg/mL: MIC ([1]; Δ35, ΔompK35 mutant) | MIC [2, 54] | MIC [3, 67]
1 µg/mL: MIC ([1]; ΔramR mutant) | MIC ([1]; ΔramRΔ35, ΔramRΔompK35 mutant) | MIC [2, 57] | MIC [2, 58] | MIC [3, 61] | MIC [3, 63]
128 µg/mL: MIC [2, 6] | MIC [2, 9] | MIC [2, 10] | MIC [2, 13] | MIC [2, 21]
4 µg/mL: MIC [1, 4] | MIC ([1]; ΔramRΔ36, ΔramRΔompK36 mutant) | MIC [2, 38] | MIC [2, 41] | MIC [2, 42] | MIC [2, 59] | MIC [2, 60] | MIC [3, 62] | MIC ([3]; ΔramRΔompK35/36 mutant)
> 256 µg/mL: MIC [2, 7] | MIC [2, 15] | MIC [2, 19] | MIC [2, 20] | MIC [2, 23] | MIC [2, 27] | MIC [2, 28] | MIC [2, 31] | MIC [2, 32] | MIC [2, 33] | MIC [2, 34] | MIC [2, 35] | MIC [2, 36] | MIC [2, 45] | MIC [2, 46] | MIC [2, 47] | MIC [2, 48] | MIC [2, 49] | MIC [2, 50] | MIC [2, 51] | MIC [2, 52]
32 µg/mL: MIC [2, 39] | MIC [2, 43] | MIC [2, 44]
